Data reported in EP3858438A1, “3,4-DIHYDRO-2H-SPIRO[ISOQUINOLINE-1,4'-PIPERIDIN]AMIDE DERIVATIVES HAVING MULTIMODAL ACTIVITY AGAINST PAIN” (ESTEVE PHARMACEUTICALS, S.A., priority 2020, dated 2021).
Structures can show the parent of a compound that is named as a salt.

Assays:
[1] = molecular target: human α2δ-1 subunit of Cav2.2 calcium channel (Homo sapiens, UniProt P54289); experiment: Binding assay to human α2δ-1 subunit of Cav2.2 calcium channel ([3H]-Gabapentin); conditions: binding expressed as Ki; [3H]-Gabapentin 15 nM, human α2δ-1 enriched membranes
Sequence of human α2δ-1 subunit of Cav2.2 calcium channel (P54289 25-1103): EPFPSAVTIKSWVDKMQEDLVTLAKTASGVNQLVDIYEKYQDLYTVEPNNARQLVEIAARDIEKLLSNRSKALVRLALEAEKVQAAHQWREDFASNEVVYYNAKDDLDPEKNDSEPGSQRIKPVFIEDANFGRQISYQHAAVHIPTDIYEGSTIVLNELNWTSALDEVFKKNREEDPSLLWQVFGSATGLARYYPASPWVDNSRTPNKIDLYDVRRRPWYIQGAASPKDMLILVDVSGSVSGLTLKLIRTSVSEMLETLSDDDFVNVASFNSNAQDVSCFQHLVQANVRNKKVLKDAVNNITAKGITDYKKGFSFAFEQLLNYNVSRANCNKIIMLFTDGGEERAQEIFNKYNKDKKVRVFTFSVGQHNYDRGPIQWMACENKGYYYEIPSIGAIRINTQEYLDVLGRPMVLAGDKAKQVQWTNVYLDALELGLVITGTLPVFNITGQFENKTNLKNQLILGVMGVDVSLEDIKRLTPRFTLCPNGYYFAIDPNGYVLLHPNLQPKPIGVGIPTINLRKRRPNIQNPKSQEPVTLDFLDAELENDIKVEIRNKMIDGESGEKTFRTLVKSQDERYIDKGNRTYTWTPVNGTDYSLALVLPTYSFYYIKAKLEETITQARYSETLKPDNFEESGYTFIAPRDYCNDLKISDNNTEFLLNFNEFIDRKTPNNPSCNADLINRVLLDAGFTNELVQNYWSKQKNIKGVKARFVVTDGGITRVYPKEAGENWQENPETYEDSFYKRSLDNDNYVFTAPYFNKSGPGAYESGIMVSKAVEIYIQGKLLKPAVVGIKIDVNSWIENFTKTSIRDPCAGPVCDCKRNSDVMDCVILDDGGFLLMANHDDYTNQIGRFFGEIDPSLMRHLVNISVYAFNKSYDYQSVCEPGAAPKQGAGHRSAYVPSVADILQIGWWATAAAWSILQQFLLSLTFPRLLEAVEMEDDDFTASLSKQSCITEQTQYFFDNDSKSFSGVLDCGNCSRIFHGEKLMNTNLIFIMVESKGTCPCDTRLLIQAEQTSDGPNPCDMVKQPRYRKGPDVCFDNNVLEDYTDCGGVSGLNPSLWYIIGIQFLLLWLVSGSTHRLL
Description: Binding assay to human α2δ-1 subunit of Cav2.2 calcium channel.
Human α2δ-1 enriched membranes (2.5 µg) were incubated with 15 nM of radiolabeled [3H]-Gabapentin in assay buffer containing Hepes-KOH 10 mM, pH 7.4.
NSB (non specific binding) was measured by adding 10 µM pregabalin. The binding of the test compound was measured at either one concentration (% inhibition at 1 or 10 µM) or five different concentrations to determine affinity values (Ki). After 60 min incubation at 27 °C, binding reaction was terminated by filtering through Multiscreen GF/C (Millipore) presoaked in 0.5 % polyethyleneimine in Vacuum Manifold Station, followed by 3 washes with ice-cold filtration buffer containing 50 mM Tris-HCl, pH 7.4.
Filter plates were dried at 60 °C for 1 h and 30 µl of scintillation cocktail were added to each well before radioactivity reading.
Readings were performed in a Trilux 1450 Microbeta radioactive counter (Perkin Elmer).

[2] = molecular target: T1, human µ-opioid receptor (Homo sapiens, UniProt P35372); experiment: Binding assay to human µ-opioid receptor ([3H]-DAMGO, transfected CHO-K1 cell membranes); conditions: binding expressed as Ki, [3H]-DAMGO 1 nM
T1 construct: expressed in transfected cells; host or cells: CHO-K1
T1 sequence (P35372 whole entry): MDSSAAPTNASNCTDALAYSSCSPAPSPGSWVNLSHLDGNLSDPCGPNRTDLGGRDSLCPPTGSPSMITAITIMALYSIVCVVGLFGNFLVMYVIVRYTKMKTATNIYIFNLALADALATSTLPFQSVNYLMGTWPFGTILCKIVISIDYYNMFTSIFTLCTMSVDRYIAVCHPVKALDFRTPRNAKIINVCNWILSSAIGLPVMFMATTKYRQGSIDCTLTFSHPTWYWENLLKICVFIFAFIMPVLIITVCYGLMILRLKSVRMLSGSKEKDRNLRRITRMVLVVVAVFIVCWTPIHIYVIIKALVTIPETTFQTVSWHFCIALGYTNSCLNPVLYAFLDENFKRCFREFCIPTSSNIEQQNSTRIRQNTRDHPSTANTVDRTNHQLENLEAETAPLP
Description: Binding assay to human µ-opioid receptor
Transfected CHO-K1 cell membranes (20 µg) were incubated with [^3H]-DAMGO (1 nM) in assay buffer containing Tris-HCl 50 mM, MgCl2 5 mM at pH 7.4.
NBS (non-specific binding) was measured by adding 10 µM naloxone. The binding of the test compound was measured at either one concentration (% inhibition at 1 or 10 µM) or five different concentrations to determine affinity values (Ki). Plates were incubated at 27 °C for 60 min. After the incubation period, the reaction mixture was then transferred to MultiScreen HTS, FC plates (Millipore), filtered and plates were washed 3 times with ice-cold 10 mM Tris-HCl (pH 7.4).
Filters were dried and counted at approximately 40% efficiency in a MicroBeta scintillation counter (Perkin-Elmer) using EcoScint liquid scintillation cocktail.

SMILES | Ki [1] | Ki [2]
CC[C@@H](c1ccccc1)[C@@H](CN)C(=O)N1CCC2(CC1)c1ccccc1CCN2C [Example 1] | < 500 nM | < 100 nM
CNC[C@@H](C(=O)N1CCC2(CC1)c1ccccc1CCN2C)[C@@H](C)c1ccccc1 [Example 2, (2S,3R)-1-(2-methyl-3,4-dihydro-2H-spiro[isoquinoline-1,4'-piperidin]-1'-yl)-2-((methylamino)methyl)-3-phenylbutan-1-one] | < 500 nM | 100 to 500 nM
CC[C@@H](c1cccc(Cl)c1)[C@@H](CNC)C(=O)N1CCC2(CC1)c1ccccc1CCN2C [Example 3, (2S,3R)-3-(3-chlorophenyl)-1-(2-methyl-3,4-dihydro-2H-spiro[isoquinoline-1,4'-piperidin]-1'-yl)-2-((methylamino)methyl)pentan-1-one dihydrochloride] | < 500 nM | 100 to 500 nM
CC[C@@H](c1cccc(Cl)c1)[C@@H](CN)C(=O)N1CCC2(CC1)c1ccccc1CCN2C [Example 4, (2S,3R)-2-(aminomethyl)-3-(3-chlorophenyl)-1-(2-methyl-3,4-dihydro-2H-spiro[isoquinoline-1,4'-piperidin]-1'-yl)pentan-1-one] | < 500 nM | < 100 nM
